# Measured values as given in ChEMBL document CHEMBL3044729, “Quantitative structure-activity relationships of pine weevil antifeedants, a multivariate approach” (2007).
# Tested on: Hylobius abietis
# Assay: Antifeedant activity against Hylobius abietis (pine weevil ) in compound pre-treated Scots pine twig at 50 mM measured after 24 hr by two-choice laboratory bioassay
# Type: functional
row,Structure (SMILES),AFI [%]
1,COC(=O)/C=C/c1ccc(OC)c(OC)c1,36
2,COC(=O)/C=C/c1ccc([N+](=O)[O-])cc1,32
3,COc1ccccc1CCC(=O)O,12
4,COC(=O)CCc1ccc(OC)c(Br)c1,68
5,COC(=O)CCc1ccccc1C,91
6,COC(=O)CCc1cccc(OC)c1,95
7,COC(=O)CCc1cccc(C)c1,90
8,COC(=O)CCc1ccc(Cl)c(Cl)c1,98
9,COC(=O)CCc1cc(OC)c(OC)c(OC)c1,26
10,COC(=O)CCc1cc(OC)cc(OC)c1,89
11,COC(=O)CCc1ccc(OC)cc1,96
12,CCCCOc1ccc(CCC(=O)OC)cc1,70
13,COC(=O)CCc1ccc(C(C)=O)cc1,14
14,COC(=O)CCc1ccc(C)cc1,99
15,COC(=O)CCc1ccc(C(F)(F)F)cc1,57
16,COC(=O)CCc1ccc(F)cc1,98
17,COC(=O)CCc1ccc(N)cc1,29
18,COC(=O)CCc1ccc(N(C)C)cc1,84
19,COc1ccc(CCC(=O)OC(C)C)cc1,83
20,Cc1ccccc1CCC(=O)O,47
21,COC(=O)CCc1ccccc1OC,97
22,COC(=O)CCc1cccc(OC)c1OC,86
23,COC(=O)CCc1ccc(C)cc1C,100
24,COC(=O)CCc1ccc(OC)c(OC)c1,35
25,COC(=O)CCc1ccc(C(C)C)cc1,94
26,COC(=O)CCc1ccc(Cl)cc1,100

row,Structure (SMILES),AFI [%]
1,COC(=O)CCc1ccc(Br)cc1,97
2,COC(=O)/C=C/c1cccc(OC)c1OC,99
3,COC(=O)/C=C/c1ccc(OC)cc1OC,96
4,COC(=O)/C=C/c1cc(OC)cc(OC)c1,72
5,COC(=O)/C=C/c1ccc(C)cc1,76
6,COC(=O)/C=C/c1ccc(C(C)C)cc1,92
7,COC(=O)/C=C/c1ccc(C(F)(F)F)cc1,62
8,COC(=O)/C=C/c1ccc(N(C)C)cc1,49
9,COC(=O)c1cc(O)cc(OC)c1,54
10,CCSC(=O)c1cc(OC)cc(OC)c1,74
11,CCNC(=O)c1cc(OC)cc(OC)c1,86
12,CCCCCCCCc1ccc(C(=O)OC)cc1,35
13,CC/C=C/CCOC(=O)c1cc(OC)cc(OC)c1,62
14,C=CCc1ccc(OC(=O)c2cc(OC)cc(OC)c2)c(OC)c1,17
15,COc1cc(OC)cc(C(=O)OCCCc2ccc(OC)c(OC)c2)c1,41
16,COC(=O)c1cc(O)ccc1OC,-3
17,COc1cc(OC)cc(C(=O)OCC(F)(F)F)c1,86
18,COc1cccc(C(=O)O)c1O,22
19,COc1ccc(O)c(C(=O)O)c1,17
20,COC(=O)C(C)Cc1ccccc1 (racemic),79
21,CCOC(=O)CC(O)c1ccccc1 (racemic),36
22,CCOC(=O)CC(O)c1ccccc1Br (racemic),59
23,COC(=O)C(Br)C(Br)c1ccccc1 (racemic),50
24,CCOC(=O)C(Br)C(Br)c1ccccc1 (racemic; form 1),75
25,CCOC(=O)C(Br)C(Br)c1ccccc1 (racemic; form 2),45
26,"CC(=O)Oc1cc(C(=O)O)cc(OC(C)=O)c1OC(C)=O [3,4,5-TRIACETOXYBENZOIC ACID]",14

row,Structure (SMILES),AFI [%]
1,"COc1cc(C(N)=O)cc(OC)c1OC [3,4,5-TRIMETHOXYBENZAMIDE]",-2
2,"O=C(O)c1cc(O)cc(O)c1 [3,5-DIHYDROXYBENZOIC ACID]",41
3,"COc1cc(OC)cc(C(=O)O)c1 [3,5-DIMETHOXYBENZOIC ACID]",-4
4,COC(=O)CCc1ccc(O)cc1 [4-HYDROXYHYDROCINNAMIC ACID METHYL ESTER],21
5,COc1ccc(C(=O)O)c(O)c1 [4-METHOXYSALICYLIC ACID],24
6,COC(=O)c1c(C)cc(O)c(C)c1O [ATRARIC ACID],31
7,CCCCOC(=O)/C=C/c1ccccc1 [BUTYL CINNAMATE],38
8,COC(=O)CCc1ccc(O)c(OC)c1 [DIHYDROFERULIC ACID METHYL ESTER],54
9,"CCCCCCCCCCCCOC(=O)c1ccc(OC)c(OC)c1 [DODECYL 3,4-DIMETHOXYBENZOATE]",23
10,CCOC(=O)CCc1ccccc1 [ETHYL 3-PHENYLPROPANOATE],73
11,CCOC(=O)/C=C/c1ccccc1 [ETHYL CINNAMATE],83
12,COC(=O)c1cc(O)c(O)c(O)c1 [GALLIC ACID METHYL ESTER],21
13,"COc1ccc(C(=O)OC(C)C)c(OC)c1 [ISOPROPYL 2,4-DIMETHOXYBENZOATE]",96
14,CC(C)OC(=O)c1ccc(O)cc1 [ISOPROPYL 4-HYDROXYBENZOATE],63
15,CC(C)OC(=O)/C=C/c1ccccc1 [ISOPROPYL CINNAMATE],96
16,COC(=O)c1ccc(OC)c(O)c1 [ISOVANILLIC ACID METHYL ESTER],65
17,COc1ccc(C(=O)O)cc1O [ISOVANILLIC ACID],51
18,"COC(=O)c1ccc(OC)c(OC)c1OC [METHYL 2,3,4-TRIMETHOXYBENZOATE]",54
19,"COC(=O)c1cccc(OC)c1OC [METHYL 2,3-DIMETHOXYBENZOATE]",73
20,"COC(=O)c1c(OC)cc(OC)cc1OC [METHYL 2,4,6-TRIMETHOXYBENZOATE]",55
21,"COC(=O)c1ccc(O)cc1O [METHYL 2,4-DIHYDROXYBENZOATE]",46
22,"COC(=O)c1ccc(OC)cc1OC [METHYL 2,4-DIMETHOXYBENZOATE]",99
23,"COC(=O)c1cc(OC)ccc1OC [METHYL 2,5-DIMETHOXYBENZOATE]",89
24,"COC(=O)c1c(OC)cccc1OC [METHYL 2,6-DIMETHOXYBENZOATE]",51
25,COC(=O)c1cccc(OC)c1O [METHYL 2-HYDROXY-3-METHOXYBENZOATE],95
26,COC(=O)c1cc(OC)ccc1O [METHYL 2-HYDROXY-5-METHOXYBENZOATE],74

row,Structure (SMILES),AFI [%]
1,COC(=O)c1c(O)cccc1OC [METHYL 2-HYDROXY-6-METHOXYBENZOATE],74
2,COC(=O)c1ccccc1OC [METHYL 2-METHOXYBENZOATE],80
3,"COC(=O)c1ccc2c(c1)OCO2 [METHYL 3,4-METHYLENEDIOXYBENZOATE]",57
4,"COC(=O)c1cc(Br)cc(Br)c1 [METHYL 3,5-DIBROMOBENZOATE]",50
5,"COC(=O)c1cc(O)cc(O)c1 [METHYL 3,5-DIHYDROXYBENZOATE]",23
6,"COC(=O)c1cc(OC)cc(OC)c1 [METHYL 3,5-DIMETHOXYBENZOATE]",95
7,"COC(=O)c1cc(C)cc(C)c1 [METHYL 3,5-DIMETHYLBENZOATE]",61
8,"COC(=O)c1cc([N+](=O)[O-])cc([N+](=O)[O-])c1 [METHYL 3,5-DINITROBENZOATE]",34
9,COC(=O)c1ccc(OC)c(Cl)c1 [METHYL 3-CHLORO-4-METHOXYBENZOATE],36
10,COC(=O)c1cccc(O)c1OC [METHYL 3-HYDROXY-2-METHOXYBENZOATE],75
11,COC(=O)c1cccc(OC)c1 [METHYL 3-METHOXYBENZOATE],89
12,COC(=O)CCc1ccccc1 [METHYL 3-PHENYLPROPANOATE],44
13,COC(=O)c1ccc(O)cc1OC [METHYL 4-HYDROXY-2-METHOXYBENZOATE],35
14,COC(=O)c1ccc(OC)cc1 [METHYL 4-METHOXYBENZOATE],54
15,COC(=O)c1ccc(O)c(O)c1 [METHYL PROTOCATECHUATE],-7
16,COC(=O)c1ccc(O)c(OC)c1 [METHYL VANILLATE],53
17,COC(=O)c1ccc(O)cc1 [METHYLPARABEN],34
18,O=C(O)c1ccc(O)cc1 [PARABEN],31
19,O=C(O)c1ccc2c(c1)OCO2 [PIPERONYLIC ACID],14
20,CCCOC(=O)/C=C/c1ccccc1 [PROPYL CINNAMATE],85
21,O=C(O)c1ccccc1O [SALICYLIC ACID],21
22,CCC(C)OC(=O)/C=C/c1ccccc1 (stereo not drawn) [SEC-BUTYL CINNAMATE],48
23,COc1cc(C(=O)O)cc(OC)c1O [SYRINGIC ACID],8
24,COc1cc(C(=O)O)ccc1O [VANILLIC ACID],48
25,COc1ccc(C(=O)O)cc1OC [VERATRIC ACID],7
